How the values were obtained:
[1] = system: G2C4 RNA (RNA, triplex) GGCCCC; test: DSC; details: 100 mM NaCl; 10 mM sodium cacodylate pH 6.0; 300 μM ANP77, 300 μM RNA; triplex melting 38.1 to 41.5; derived from two Tm
[2] = system: G2C4 RNA (RNA, triplex) GGCCCC; test: ITC; details: 100 mM NaCl; 10 mM sodium cacodylate pH 6.0, 25°C; one set of sites model
[3] = system: (G2C4)2 (RNA, repeat) GGCCCCGGCCCC; test: ITC; details: 100 mM NaCl; 10 mM sodium cacodylate pH 6.0, 25°C; sequential binding sites model; site 1 of 2
[4] = system: (G2C4)2 (RNA, repeat) GGCCCCGGCCCC; test: circular dichroism; details: 100 mM NaCl; 10 mM sodium cacodylate pH 7.0, room temperature; 2.5 μM RNA, 25 μM ANP77
[5] = system: RNA oligomer having five G2C4 repeats (RNA, repeat) GGCCCCGGCCCCGGCCCCGGCCCCGGCCCC; test: circular dichroism; details: 100 mM NaCl; 10 mM sodium cacodylate pH 7.0, room temperature; 2.5 μM RNA, 25 μM ANP77
[6] = system: G2C4 RNA (RNA, triplex) GGCCCC; test: X-ray crystal structure; details: 80 mM NaCl; 40 mM sodium cacodylate pH 6.0, 45% MPD, 12 mM spermine, 19°C; 1.1 Å
[7] = system: G2C4 RNA (RNA, triplex) GGCCCC; test: CSI-TOF mass spectrometry; details: 250 mM ammonium acetate; water/methanol 8:2, -10°C spray; 20 μM RNA, 50 μM ANP77; complexes with double-stranded form

NCCCNC(=O)C(Cc1ccc2ccc(N)nc2n1)Cc1ccc2ccc(N)nc2n1
ΔTm1 (shift in Tm1) [1]: 3.4 °C
Kd [2]: 7.9 ± 1.0 µM
Kd [3]: 0.976 ± 0.377 µM
binding [4]: yes
binding [5]: yes
binding [6]: yes
binding [7]: yes
